Data taken from patent US20060233887A1, “Bioactive material for use in stimulating vascularization” (The North West London Hospitals N H S Trust, priority 2003, published 2006).

Tested on: human endothelial cells
Experiment: In vitro angiogenesis assay (Angiogenesis Assay Kit, CD31 staining, AngioSys image analysis)
Type: cell-based
Conditions: 11 days
From the text: To evaluate the angiogenic growth factors secreted from fibroblasts in response to 45S5 Bioglass®, a commercial angiogenesis assay (Angiogenesis Assay Kit; TCS CellWorks Ltd) was used (Donovan D et al. Comparison of three in vitro human ‘angiogenesis’ assays with capillaries formed in vivo. Angiogenesis. 2001;4:113-121; Drinkwater S L et al Effect of venous ulcer exudates on angiogenesis in vitro. Br J Surg. 2002;89:709-713; Sengupta S et al. Thymidine phosphorylase induces angiogenesis in vivo and in vitro: an evaluation of possible mechanisms. Br J Pharmacol. 2003;139:219-231). The assay was performed according to the manufacturer's instructions.
In brief, on the day of delivery from the supplier, the medium in the culture plate was replaced with optimised medium (TCS CellWorks Ltd; supplied with the kit) alone (OM); OM:conditioned medium (medium collected from human colonic fibroblasts (CCD-18co) cultured on 0 g/cm^2 or 0.3125 mg/cm^2 45S5 Bioglass® for 72 hours) at 1:1 v/v; OM containing 2 ng/ml VEGF (positive control); or OM containing 20 μM suramin (negative control). Each treatment condition was repeated in quadruplicate. The culture medium was removed on days 4, 7 and 9 of the experiment and replaced with fresh pre-equilibrated (37° C. and 5% CO2) optimised medium plus each treatment. After 11 days, the endothelial cells were stained for CD31 (TCS CellWorks Ltd) using indirect immunocytochemistry as described in the manufacturer's instructions and allowed to air-dry. Each well was divided into quadrants on the underside of the plate. Photomicrographs of each quadrant were recorded with a Nikon Eclipse TE2000-S inverted photomicroscope fitted with a digital camera using a 4× objective lens. Image analysis software (AngioSys, Foster Findlay Associates, Newcastle Upon Tyne, UK) was used for automated scoring of the assay, providing quantitative measurements of endothelial tubule development (total vessel number, total tubule length and number of junctions), as previously described (Drinkwater S L et al Effect of venous ulcer exudates on angiogenesis in vitro. Br J Surg. 2002;89:709-713; Sengupta S et al. Thymidine phosphorylase induces angiogenesis in vivo and in vitro: an evaluation of possible mechanisms. Br J Pharmacol. 2003; 139:219-231).

[1] = 20 μM suramin, vs control endothelial cells

| Molecule | number of anastomosed endothelial tubules (micrographs) (2 ng/ml VEGF, vs optimised medium alone) | endothelial tubule development (tubules, tubule length, junctions) (2 ng/ml VEGF, positive control) | number of endothelial tubules [1] | number of tubule junctions [1] | total tubule length [1] |
| --- | --- | --- | --- | --- | --- |
| VEGF | visible increase | Significant increases | – | – | – |
| Cc1ccc(C(=O)Nc2ccc(S(=O)(=O)O)c3cc(S(=O)(=O)O)cc(S(=O)(=O)O)c23)cc1NC(=O)c1cccc(NC(=O)Nc2cccc(C(=O)Nc3cc(C(=O)Nc4ccc(S(=O)(=O)O)c5cc(S(=O)(=O)O)cc(S(=O)(=O)O)c45)ccc3C)c2)c1 [suramin] | – | – | reduced | reduced | reduced |
